Test results taken from ChEMBL document CHEMBL1201862, “PubChem BioAssay data set” (2004).
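Five compound concentrations were applied to cells in 96-well plates for 48 hours; endpoints were derived by simple linear interpolation of the resulting dose-response curve. GI50 marks 50% less growth.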 Activity calls are given as the source filed them. Rule as the data show it: active = GI50 up to about 1.1 µM and inactive = higher.

Tests used:
Assay in all cases: NCI tumour cell line growth inhibition, 48 h
DMS-114 = system: DMS-114
KM-20L2 = system: KM-20L2
LXFL 529 = system: LXFL 529
SNB-78 = system: SNB-78
XF498 = system: XF498
DMS-273 = system: DMS-273
MDA-N = system: MDA-N
HOP-18 = system: HOP-18
RXF 631 = system: RXF 631

NC(=O)N1N=C2c3ccccc3SC[C@H]2[C@@H]1c1ccccc1
GI50 (DMS-114): 23.7 µM (inactive)
GI50 (KM-20L2): 20.2 µM (inactive)
GI50 (LXFL 529): 26.5 µM (inactive)
GI50 (SNB-78): 33.5 µM (inactive)
GI50 (XF498): 22 µM (inactive)

[N-]=[N+]=NC1CC(n2cc(COCC(F)(F)F)c(=O)[nH]c2=O)OC1CO (stereo not drawn)
GI50 (DMS-114): > 100 µM (inactive)
GI50 (DMS-273): > 100 µM (inactive)
GI50 (KM-20L2): > 100 µM (inactive)
GI50 (LXFL 529): > 100 µM (inactive)
GI50 (SNB-78): > 100 µM (inactive)
GI50 (XF498): > 100 µM (inactive)

CCCN(C(=O)c1ccccc1)C(C#N)c1ccc(C(C#N)N(CCC)C(=O)c2ccccc2)cc1 (stereo not drawn)
GI50 (MDA-N): > 100 µM (inactive)

Cc1ccc(/N=N/c2ccc(O)c(CN(C)C)c2)cc1
GI50 (MDA-N): 16.2 µM (inactive)

O=C1CCN2c3ccccc3[C@H]3Cc4cccc(c4[C@@H]2C3)CCO1
GI50 (MDA-N): 26.2 µM (inactive)

C=C1CC/C=C(/C(=O)O)CC[C@H]2[C@@H]1CC2(C)C
GI50 (MDA-N): > 100 µM (inactive)

Clc1ccc(C(Cc2cccc(Cl)c2)c2c(Cl)nc(N3CCNCC3)nc2Cl)cc1 (stereo not drawn)
GI50 (MDA-N): 16.1 µM (inactive)

NC(=O)c1ccccc1NC(=O)C(=O)C(C(=O)c1ccc2ccccc2c1)C1OC(=O)c2ccccc21 (stereo not drawn)
GI50 (DMS-273): 12.5 µM (inactive)
GI50 (HOP-18): 1.34 µM (inactive)
GI50 (KM-20L2): 28.3 µM (inactive)
GI50 (LXFL 529): 8.17 µM (inactive)
GI50 (SNB-78): 10.5 µM (inactive)
GI50 (XF498): 2.59 µM (inactive)

COc1ccc(N[S+]([O-])c2ccc(-c3ccccc3)cc2)cc1 (stereo not drawn)
GI50 (MDA-N): 97.7 µM (inactive)

O=c1[nH]c(-c2ccccc2)nc2cc([N+](=O)[O-])c(/C(Cl)=C/c3ccccc3)cc12
GI50 (DMS-114): 35.7 µM (inactive)
GI50 (DMS-273): 29.1 µM (inactive)
GI50 (KM-20L2): 33.7 µM (inactive)
GI50 (LXFL 529): 16.4 µM (inactive)
GI50 (SNB-78): 35 µM (inactive)

c1ccc2cc(CNCCCCNCCCNCc3ccc4ccccc4c3)ccc2c1
GI50 (MDA-N): 0.993 µM (active)

CCO/N=C\c1ccc2oc(-c3ccccc3)cc(=O)c2c1
GI50 (MDA-N): 0.0143 µM (active)

CCOC(=O)C1(C/C=C/CCl)CCCC1=O (stereo not drawn)
GI50 (MDA-N): 17.9 µM (inactive)

O/N=C1/CCCC/C1=C\c1ccc(Cl)c(Cl)c1
GI50 (DMS-114): 19.3 µM (inactive)
GI50 (DMS-273): 24.7 µM (inactive)
GI50 (HOP-18): 22.1 µM (inactive)
GI50 (KM-20L2): 20.5 µM (inactive)
GI50 (LXFL 529): 19.7 µM (inactive)
GI50 (SNB-78): 22.9 µM (inactive)
GI50 (XF498): 19.8 µM (inactive)

COC(=O)c1ccccc1NC(=S)NN(C)C
GI50 (MDA-N): > 100 µM (inactive)

Cc1c(Cl)ccc2c1NC(=O)C2(O)C1Cc2ccccc2C1=O (stereo not drawn)
GI50 (DMS-114): 53.6 µM (inactive)
GI50 (HOP-18): > 100 µM (inactive)
GI50 (KM-20L2): > 100 µM (inactive)
GI50 (LXFL 529): 41.1 µM (inactive)
GI50 (SNB-78): > 100 µM (inactive)

CCCO/S(=N\S(=O)(=O)c1ccccc1)c1ccccc1[N+](=O)[O-] (stereo not drawn)
GI50 (DMS-114): > 100 µM (inactive)
GI50 (DMS-273): > 100 µM (inactive)
GI50 (KM-20L2): > 100 µM (inactive)
GI50 (LXFL 529): > 100 µM (inactive)
GI50 (RXF 631): > 100 µM (inactive)
GI50 (SNB-78): > 100 µM (inactive)
GI50 (XF498): > 100 µM (inactive)

[N-]=[N+]=NC(c1cn(C2CC(O)C(CO)O2)c(=O)[nH]c1=O)C(Cl)Br (stereo not drawn)
GI50 (DMS-114): > 100 µM (inactive)
GI50 (DMS-273): > 100 µM (inactive)
GI50 (HOP-18): 47.2 µM (inactive)
GI50 (KM-20L2): > 100 µM (inactive)
GI50 (LXFL 529): > 100 µM (inactive)
GI50 (SNB-78): > 100 µM (inactive)

CC1(C)OC[C@@H](/C=C\CCO[Si](c2ccccc2)(c2ccccc2)C(C)(C)C)N1C(=O)c1ccccc1
GI50 (MDA-N): 15.8 µM (inactive)

OC1COC2CC(Nc3ccccn3)OC12 (stereo not drawn)
GI50 (MDA-N): > 100 µM (inactive)

CC(C)=CCC[C@@H](C)/C=C/C=C(\C)C(=O)CC[C@@H]1CC[N@+]2(C)CCCC[C@H]12
GI50 (MDA-N): > 100 µM (inactive)

O=C(O)C(Cc1ccc(O)cn1)NC(=O)C(F)(F)F (stereo not drawn)
GI50 (MDA-N): > 100 µM (inactive)

COC(=O)C(=O)C(CC(=O)Nc1ccc(C)cc1)C(=O)OC (stereo not drawn)
GI50 (DMS-114): > 100 µM (inactive)
GI50 (HOP-18): > 100 µM (inactive)
GI50 (KM-20L2): > 100 µM (inactive)
GI50 (LXFL 529): > 100 µM (inactive)
GI50 (RXF 631): > 100 µM (inactive)
GI50 (SNB-78): > 100 µM (inactive)
GI50 (XF498): > 100 µM (inactive)

O=C(/C(=C/c1cccs1)c1ccccc1)c1ccccc1
GI50 (MDA-N): > 100 µM (inactive)

CN(C)CCCn1nc(N)c2nc3cc(Cl)ccc3nc21
GI50 (MDA-N): 52.7 µM (inactive)

O=S(=O)(O)c1ccc2cccc(/N=N\c3c(O)ccc4ccccc34)c2c1
GI50 (MDA-N): > 100 µM (inactive)

NC(Cc1ccc(S(=O)(=O)O)cc1)C(=O)NC(CCCCNC(=O)NCCCCC(NC(=O)C(N)Cc1ccc(S(=O)(=O)O)cc1)C(=O)NC(Cc1ccc(S(=O)(=O)O)cc1)C(=O)O)C(=O)NC(Cc1ccc(S(=O)(=O)O)cc1)C(=O)O (stereo not drawn)
GI50 (MDA-N): > 100 µM (inactive)

O=C(O)Cn1ccc(=O)c2ccc([N+](=O)[O-])cc21
GI50 (MDA-N): > 100 µM (inactive)

CC1(C)[C@@H]2C[C@H]1C(Cc1ccccc1C[C@H]1c3cc(-c4ccccn4)ncc3[C@H]3C[C@@H]1C3(C)C)c1cc(-c3ccccn3)ncc12 (stereo partly drawn)
GI50 (MDA-N): 0.578 µM (active)

OC[C@H]1N[C@H](CO)[C@@H](O)[C@H]1O
GI50 (MDA-N): > 10 µM (inactive)

COc1cc2c(cc1OC)C(=O)/C(=C/c1cc(C)cc(C)c1)C2
GI50 (MDA-N): < 0.0156 µM (active)

COc1cc2nc(-c3ccccc3)cc(O)c2c(OC)c1OC
GI50 (MDA-N): > 100 µM (inactive)

COc1ccc2[nH]c3c(O)nncc3c2c1
GI50 (DMS-114): > 100 µM (inactive)
GI50 (DMS-273): > 100 µM (inactive)
GI50 (HOP-18): > 100 µM (inactive)
GI50 (LXFL 529): > 100 µM (inactive)
GI50 (SNB-78): > 100 µM (inactive)

COc1ccc2c(c1)/C(=C\c1c(Cl)n(-c3ccccc3)c3ccccc13)C(=O)N2
GI50 (MDA-N): 1.74 µM (inactive)
